Values quoted from earlier work as cited in patent US12653843B2, “Compositions comprising extracellular matrix of primitive animal species and related methods” (University of Pittsburgh—Of the Commonwealth System of …, priority 2016, dated 2026).

Biological target: ErbB2 (Homo sapiens, UniProt P04626)
Sequence (P04626 23-1255, species assumed): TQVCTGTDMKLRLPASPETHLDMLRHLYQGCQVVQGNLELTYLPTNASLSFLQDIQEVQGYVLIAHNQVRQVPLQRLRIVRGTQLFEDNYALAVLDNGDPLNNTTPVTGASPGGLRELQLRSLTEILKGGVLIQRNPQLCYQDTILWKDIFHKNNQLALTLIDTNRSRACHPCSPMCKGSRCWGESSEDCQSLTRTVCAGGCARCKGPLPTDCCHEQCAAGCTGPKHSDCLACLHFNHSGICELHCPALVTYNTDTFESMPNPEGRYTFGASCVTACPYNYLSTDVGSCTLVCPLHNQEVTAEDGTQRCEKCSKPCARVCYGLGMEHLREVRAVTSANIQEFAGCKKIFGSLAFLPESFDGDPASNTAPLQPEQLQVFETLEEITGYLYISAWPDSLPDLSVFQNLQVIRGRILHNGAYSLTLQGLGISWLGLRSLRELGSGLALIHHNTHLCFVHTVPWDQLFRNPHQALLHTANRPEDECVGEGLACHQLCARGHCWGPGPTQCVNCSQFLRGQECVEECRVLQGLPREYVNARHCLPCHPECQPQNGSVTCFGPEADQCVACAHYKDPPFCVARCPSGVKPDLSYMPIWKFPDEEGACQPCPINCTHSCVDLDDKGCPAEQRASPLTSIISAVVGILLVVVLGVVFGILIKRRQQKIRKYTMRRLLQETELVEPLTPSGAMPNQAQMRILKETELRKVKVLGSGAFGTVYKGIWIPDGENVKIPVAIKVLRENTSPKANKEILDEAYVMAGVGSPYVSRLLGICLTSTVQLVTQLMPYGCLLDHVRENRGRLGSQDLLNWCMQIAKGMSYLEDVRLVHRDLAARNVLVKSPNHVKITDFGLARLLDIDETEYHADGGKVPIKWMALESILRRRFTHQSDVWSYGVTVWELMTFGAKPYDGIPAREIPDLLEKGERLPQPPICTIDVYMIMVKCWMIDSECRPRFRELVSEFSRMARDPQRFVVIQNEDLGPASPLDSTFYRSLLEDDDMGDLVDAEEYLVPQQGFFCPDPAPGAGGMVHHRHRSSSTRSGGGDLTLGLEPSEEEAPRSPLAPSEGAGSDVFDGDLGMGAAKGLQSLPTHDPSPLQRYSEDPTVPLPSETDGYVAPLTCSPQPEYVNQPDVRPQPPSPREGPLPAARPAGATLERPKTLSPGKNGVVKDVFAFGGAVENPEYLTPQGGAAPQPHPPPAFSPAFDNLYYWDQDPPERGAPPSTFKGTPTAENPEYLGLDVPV

COc1cc(/C=C(\C#N)C(N)=O)cc(CSc2nc3ccccc3s2)c1O [AG825]
selectivity: inhibition of ErbB2 autophosphorylation versus ErbB1 (EGFR): ~60 fold
